Results reported in patent US9937198B2, “Multi-functional composition and preparation method and application thereof” (Suzhou Sciscape Bio-Pharmaceutical Technology Co., Ltd., priority 2013, dated 2018).
Where “and” joins values, the source holds several entries; their conditions need not be identical. Equal entries are not always repeated.

Legend:
[1] = test system: patients with type-II diabetes; assay: Short-term experiment for treatment in human diabetics; format: in vivo; conditions: for effect on blood glucose level in patients with type-II diabetes, short-term / Blood glucose level after administration: 200 mL oral; for Blood glucose level after administration / Blood glucose level before administration: individual type-II diabetes patients; for Blood glucose level before administration: fasting baseline
Experimental: Six patients with type-II diabetes were fasted overnight and then measured for fasting blood glucose level. Then they were orally administered with 200 mL of the solution of Composition 1, or 200 mL of solution of trehalose (0.15 g/mL), or 200 mL of the solution of validamycin (0.3 mg/mL), or 200 mL of distilled water, as stated in Table 3.3. The blood glucose level in every patient was tested before administration and 30 min, 60 min and 120 min post administration.

normal mice [2] = assay: Loaded swimming in normal mice; format: in vivo; conditions: 2 g weight on tail, 20 min after 13.3 mL/kg intragastric
Excerpt: Female ICR mice, 8 weeks old and 20±2 g in body weight, were purchased from Beijing HFK Bioscience Co., Ltd.
The solutions of Composition 1 to 7 prepared in this example were used.
After the mice were fed normally for 3 days, they were randomly divided into 11 groups by body weight, i.e., a blank control group, administration groups 1 to 7 and negative control groups 1 to 3. The mice in administration groups 1 to 7 were intragastrically administered with the solution of Compositions 1 to 7 respectively a dose of 13.3 mL/kg body weight while the mice in the blank control group were intragastrically given sterile water for medical use at a dose of 13.3 mL/kg body weight. The mice in negative control groups 1 to 3 were intragastrically given the solution of trehalose (0.15 g/mL), the solution of validamycin (0.3 mg/mL) and the solution of algal polysaccharides (0.15 g/mL) respectively at a dose of 13.3 mL/kg body weight. Twenty minutes after the administration, a weight of 2 g was fixed to the tail of each mouse and the mice were put into a pool to swim with load. The bath temperature was 25±2° C., and the depth was more than 30 cm. The survival time in the loaded swimming was recorded (when all parts of a mouse were under water for 10 s, the mouse was considered to be unable to rise to the surface).

normal mice [3] = assay: Acetic acid writhing (pain) in normal mice; format: in vivo; conditions: for Time of initial writhing: 13.3 mL/kg intragastric, 0.6% acetic acid i.p. 20 min later; for Pain inhibition ratio: relative to number of writhings in blank control group; for Number of writhings: within 30 min after acetic acid injection
Excerpt: (§1) Male ICR mice, 8 weeks old and 20±2 g in body weight, were purchased from Beijing HFK Bioscience Co., Ltd.
(§2) The solutions of Compositions 1 to 7 prepared in this example were used.
After mice were normally fed for 3 days, they were randomly divided into 11 groups depending on body weight, i.e., a blank control group, administration groups 1 to 7 and negative control groups 1 to 3, by body weight. The mice in administration groups 1 to 7 were intragastrically given the solutions of Compositions 1 to 7 respectively at a dose of 13.3 mL/kg body weight while the mice in the blank control group were intragastrically given sterile water for medical use at a dose of 13.3 mL/kg body weight. The mice in negative control groups 1 to 3 were intragastrically given the solution of trehalose (0.15 g/mL), the solution of validamycin (0.3 mg/mL) and the solution of algal polysaccharides (0.15 g/mL) at a dose of 13.3 mL/kg body weight respectively. Twenty minutes after the administration, the mice were intraperitoneally administered with 0.2 ml of solution of acetic acid (0.6%). Then, the number of writhing and time when initial writhing occurred in mice were observed within 30 min after injection of acetic acid solution and the pain inhibition ratio (pain inhibition ratio=(number of writhings in the blank control group—number of writhings in the administration group)/number of writhings in the blank control group) was calculated.

Male ICR mice = assay: In vivo absorption: blood glucose in fasted normal mice after intragastric administration; conditions: for Blood glucose level after administration: 13.3 mL/kg intragastric; for Blood glucose level before administration: baseline, mice fasted 12 h; for blood glucose level compared to the blank control group: before or after administration, normal mice
Experimental: Male ICR mice, 8 weeks old, 20±2 g in body weight, were purchased from Beijing HFK Bioscience Co., Ltd.
The composition used in the present experiment example was the solution of Composition 1. In particular, 15 g of trehalose and 3 mg of validamycin were picked and then dissolved in 100 mL of sterile water for medical use to provide the solution of Composition 1 which was kept for future use.
After normally fed for 3 days, the mice fasted for 12 h with water sufficiently supplied. Then, they were randomly divided into 4 groups depending on the blood glucose, i.e., a blank control group, an administration group, and negative control group 1 and negative control group 2. The mice in the administration group were intragastrically given the solution of Composition 1 prepared in this experimental example at a dose of 13.3 mL/kg body weight while the mice in the blank control group were intragastrically given sterile water for medical use at a dose of 13.3 mL/kg body weight. In addition, the mice in negative control group 1 and 2 were respectively intragastrically given the solution of trehalose (0.15 g/mL) and the solution of validamycin (0.3 mg/mL) at the same dose of 13.3 mL/kg body weight. The blood glucose levels before administration and 10 min, 25 min, 40 min and 60 min post administration were measured respectively, and the results were shown in Table 2.

normal mice [4] = assay: Defecation quantity and body weight changes in normal mice (sliming); format: in vivo
Experimental: as §1, §2
After the mice were fed normally for 3 days, they were given no food but water for 4 h. By body weight, they were randomly divided into 11 groups, i.e., a blank control group, administration groups 1 to 7 and negative control groups 1 to 3. The mice in administration groups 1 to 7 were intragastrically administered with the solutions of Compositions 1 to 7 respectively at a dose of 13.3 mL/kg body weight. On the other hand, the mice in the blank control group were intragastrically given sterile water for medical use at a dose of 13.3 mL/kg body weight. Further, the mice in negative control groups 1 to 3 were intragastrically given the solution of trehalose (0.15 g/mL), the solution of validamycin (0.3 mg/mL) and the solution of algal polysaccharides (0.15 g/mL) respectively at a dose of 13.3 mL/kg body weight. At 20 to 30 min post administration, mice were allowed to eat freely and the defecation quantity in the mice from each group before and after administration (average feces quantity of the mice in each group), the percentages of defecation quantities before and after administration based on the total defecation quantities throughout the experiment and the body weight were recorded.

[5] = after administration, 13.3 mL/kg intragastric

## OC[C@H]1O[C@H](O[C@H]2O[C@H](CO)[C@@H](O)[C@H](O)[C@H]2O)[C@H](O)[C@@H](O)[C@@H]1O [trehalose]
[1]
  effect on blood glucose level in patients with type-II diabetes, short-term: significantly raised the blood glucose level
  Blood glucose level before administration: 15.3 mmol/L
[1]; 30 min
  Blood glucose level after administration: 25.5 mmol/L
[1]; 60 min
  Blood glucose level after administration: 20.1 mmol/L
[1]; 120 min
  Blood glucose level after administration: 17.3 mmol/L
Normal mice [2]
  Survival time: 13.45 ± 2.54 min
Normal mice [3]
  Time of initial writhing: 3.4 ± 1.1 min
  Pain inhibition ratio: 0.0%
  Number of writhings: 51.3 ± 1.6
Male ICR mice; 10 min
  Blood glucose level after administration: 6.4 ± 0.40 mmol/L
Male ICR mice; 25 min
  Blood glucose level after administration: 9.5 ± 1.00 mmol/L
Male ICR mice; 40 min
  Blood glucose level after administration: 11.0 ± 0.30 mmol/L
Male ICR mice; 60 min
  Blood glucose level after administration: 9.5 ± 1.12 mmol/L
Male ICR mice
  Blood glucose level before administration: 4.9 ± 0.53 mmol/L
  blood glucose level compared to the blank control group: increased significantly
Normal mice [4]; [5]
  Body weight: 19.10 g
  Percentage of defecation quantity in each stage based the total defecation quantity: 37.84%
  defecation quantity: 0.70 ± 0.01 g
Normal mice [4]; before administration
  Body weight: 19.80 g
  Percentage of defecation quantity in each stage based the total defecation quantity: 62.16%
  defecation quantity: 1.15 ± 0.03 g

## OCC1=C[C@H](N[C@H]2C[C@H](CO)[C@@H](O[C@@H]3O[C@H](CO)[C@@H](O)[C@H](O)[C@H]3O)[C@H](O)[C@H]2O)[C@H](O)[C@@H](O)[C@@H]1O [validamycin]
[1]
  effect on blood glucose level in patients with type-II diabetes, short-term: had no influence on blood glucose level
[1]; 30 min, listed as Solution of validamycin
  Blood glucose level after administration: 9.5 mmol/L and 15.7 mmol/L
[1]; 60 min, listed as Solution of validamycin
  Blood glucose level after administration: 9.6 mmol/L and 16.1 mmol/L
[1]; 120 min, listed as Solution of validamycin
  Blood glucose level after administration: 9.1 mmol/L and 14.8 mmol/L
[1]; listed as Solution of validamycin
  Blood glucose level before administration: 9.3 mmol/L and 15.5 mmol/L
Normal mice [2]
  Survival time: 12.54 ± 1.08 min
Normal mice [3]
  Time of initial writhing: 3.6 ± 1.6 min
  Pain inhibition ratio: 0.0%
  Number of writhings: 51.9 ± 2.1
Male ICR mice; 10 min
  Blood glucose level after administration: 5.3 ± 0.45 mmol/L
Male ICR mice; 25 min
  Blood glucose level after administration: 5.7 ± 0.56 mmol/L
Male ICR mice; 40 min
  Blood glucose level after administration: 5.2 ± 0.23 mmol/L
Male ICR mice; 60 min
  Blood glucose level after administration: 5.3 ± 0.20 mmol/L
Male ICR mice
  Blood glucose level before administration: 5.2 ± 0.44 mmol/L
  blood glucose level compared to the blank control group: no significant difference
Normal mice [4]; [5]
  Body weight: 19.45 g
  Percentage of defecation quantity in each stage based the total defecation quantity: 35.26%
  defecation quantity: 0.67 ± 0.05 g
Normal mice [4]; before administration
  Body weight: 20.12 g
  Percentage of defecation quantity in each stage based the total defecation quantity: 64.74%
  defecation quantity: 1.23 ± 0.04 g
